# Measured values published in patent US10752616B2, “Bicycloheteroaryl-heteroaryl-benzoic acid compounds as retinoic acid receptor beta (RARβ) agonists” (King's College London, priority 2014, dated 2020).
# Read-outs that look alike come from different tables or passages of the source.
# How the values were obtained:
# RARγ [1] = target: T1, RARγ (Homo sapiens (Human), UniProt P13631); test: Transactivation assay, human RARγ; type: cell-based
# Method: (§1) Transcriptional transactivation assays were performed with gal4 fusion receptor constructs, created using each of the RAR ligand binding domains of either mouse or human, co-transfected with the pFR-luc (Stratagene) reporter construct in COS-7 cells.
# (§2) Briefly, on day 1, 96 well plates were seeded with 8000 cells per well then left to recover overnight. On day 2, the cells were co-transfected with 100 ng of reporter plasmid and 10 ng of the appropriate receptor plasmid per well using lipofectamine (Invitrogen). On day 3, the lipofectamine containing media was replaced by a DMEM without phenol red, followed by the addition of test compound dissolved in 1 μL of DMSO to each well's 100 μL total volume. Finally, on day 4, the cells were lysed and their luciferase substrate was provided by the BrightGlo™ reagent (Promega), the plates were then read on the MicroBeta TriLux™ (Perkin Elmer).
# (§3) Data for test compounds are quoted as EC50 values. Where replicate data has been generated, the data are quoted as the mean EC50 from the separate experiments.
# Target sequence in this assay (P13631 185-419): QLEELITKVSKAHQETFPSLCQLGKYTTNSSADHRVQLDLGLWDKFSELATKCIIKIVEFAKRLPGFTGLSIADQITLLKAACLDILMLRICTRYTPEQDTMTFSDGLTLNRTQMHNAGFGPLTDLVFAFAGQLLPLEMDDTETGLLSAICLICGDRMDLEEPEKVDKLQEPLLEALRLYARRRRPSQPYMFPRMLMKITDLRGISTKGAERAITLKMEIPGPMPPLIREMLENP
# RARα [2] = target: T2, RARα (Mus musculus (Mouse), UniProt P11416); test: Transactivation assay, mouse RARα; type: cell-based; settings: Table 3
# T2 sequence (P11416 183-417): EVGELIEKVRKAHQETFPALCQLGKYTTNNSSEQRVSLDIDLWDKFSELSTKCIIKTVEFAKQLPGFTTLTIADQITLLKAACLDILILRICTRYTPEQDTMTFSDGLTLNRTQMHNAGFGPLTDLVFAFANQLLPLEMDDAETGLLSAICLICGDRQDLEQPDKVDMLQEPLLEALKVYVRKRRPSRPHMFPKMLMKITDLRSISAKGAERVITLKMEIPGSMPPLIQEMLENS
# Method: as §1, §2, §3
# RARγ [3] = target: T3, RARγ (Mus musculus (Mouse), UniProt P18911); test: Transactivation assay for RARγ (gal4-RAR fusion, pFR-luc reporter, COS-7 cells), Table 2; type: cell-based; settings: Table 2; COS-7 reporter; mean of three or more determinations; inactive = no agonist action at highest concentration tested
# T3 sequence (P18911 185-419): as the sequence (P13631 185-419) above
# Outline: (§4)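 COS-7 cells co-transfected with gal4-RAR ligand-binding-domain fusion (mouse or human) plus pFR-luc reporter, compound added next day in phenol-red-free DMEM with 1% DMSO; luciferase read after a further day. EC50 given as mean of three or more determinations.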
# RARβ [4] = target: T4, RARβ (Mus musculus (Mouse), UniProt P22605); test: Transactivation assay for RARβ (gal4-RAR fusion, pFR-luc reporter, COS-7 cells), Table 2; type: cell-based; settings: COS-7 reporter, mean of three or more determinations, species not stated (method: mouse or human)
# T4 sequence (P22605 210-444): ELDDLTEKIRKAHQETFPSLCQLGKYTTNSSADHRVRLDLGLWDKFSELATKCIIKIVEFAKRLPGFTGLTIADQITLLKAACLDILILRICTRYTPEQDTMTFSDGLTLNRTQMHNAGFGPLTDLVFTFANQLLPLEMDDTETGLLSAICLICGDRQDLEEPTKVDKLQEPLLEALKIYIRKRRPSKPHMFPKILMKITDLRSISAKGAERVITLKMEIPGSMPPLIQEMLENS
# Outline: as §4
# RARβ [5] = target: T4, RARβ; test: Transactivation assay, mouse RARβ; type: cell-based; settings: Table 3, read-out: RARβ potency - EC50
# Method: as §1, §2, §3
# RARβ [6] = target: RARβ (Homo sapiens (Human), UniProt P10826); test: Transactivation assay, human RARβ; type: cell-based
# Sequence of RARβ (Homo sapiens (Human), UniProt P10826) (P10826 183-417): as the sequence (P22605 210-444) above
# Method: as §1, §2, §3
# RARγ [7] = target: T3, RARγ; test: Transactivation assay, mouse RARγ; type: cell-based; settings: Table 3
# Method: as §1, §2, §3
# RARα [8] = target: T2, RARα; test: Transactivation assay for RARα (gal4-RAR fusion, pFR-luc reporter, COS-7 cells), Table 2; type: cell-based; settings: Table 2; COS-7 reporter; mean of three or more determinations; inactive = no agonist action at highest concentration tested
# Outline: as §4
# RARα [9] = target: T5, RARα (Homo sapiens (Human), UniProt P10276); test: Transactivation assay, human RARα; type: cell-based
# Method: as §1, §2, §3
# Target sequence in this assay (P10276 183-417): as the sequence (P11416 183-417) above, with K165R counted along it
# [10] = system: rats with severed sensory roots; test: Severed and re-implanted sensory roots (DRG, left forelimb) in rats; sticky tape tests; type: in vivo; settings: rat, 1 mg/kg two days after lesion, then three times a week
# Method: In another example of nerve injury, the four sensory roots from each of four DRG at the level of the left forelimb were severed and re-implanted into the spinal cord.
# FIGS. 2A and 2B show two graphs of the time taken for rats to sense sticky tape (FIG. 2A) and to remove sticky tape (FIG. 2B) that is placed on its injured forepaw, as a function of the number of weeks after injury. Rats were treated with 1 mg/kg of the test compound or vehicle two days after lesion, and then three times a week for the period of the experiment. Error bars show SEM. ***P<0.001, students t test, n=3-4 rats for each treatment group. At weeks 3, 4, and 5, there was significant difference between the rats treated with RARβ agonist as compared to rats treated with other retinoid agonists and vehicle.
# phospho-Akt = test: Western blot of cerebellar cultures for phospho-Akt; type: cell-based, rat; settings: cerebellar cultures treated with 1 μM
# cortex explants = test: Neurite outgrowth from cultured cortex of treated lesioned animals; type: cell-based, rat; settings: cortex from lesioned rats treated in vivo
# Method: When pieces of cortex from these RARβ agonist treated animals were cultured, neurite outgrowth was observed, in contrast to cortex from control lesioned animals.
# (§5) Cerebellar neurons isolated from post-natal day 3 rat pups were cultured over monolayers of parental 3T3 cells in control media, or media supplemented with a recombinant MAG-Fc chimera (R&D Systems) used at a final concentration of 20 μg/mL MAG-Fc. The monolayers were established for 24 hours prior to addition of the neurons and the co-cultures were maintained for approximately 21 hours. Following careful fixation with 4% paraformaldehyde, the neurons were immuno-stained with a GAP-43 antibody (from Graham Wilkin, Imperial College), dilution of 1:500, and the mean length of the longest neurite per cell was measured for approximately 120-150 neurons as previously described (see, e.g., Williams et al., 2005). DRG and cortical explants were obtained from adult rats, they were cultured in cellogen as previously described (see, e.g., Corcoran and Maden, 1999). Three explants per treatment were used. Neurite outgrowth was assessed 3 days later by immunohistochemistry with NF200 (Sigma, dilution of 1:200). The average lengths of the neurites were measured using image pro plus software. Media consisted of DMEM-F12 (Invitrogen) containing N2 (Invitrogen) supplemented with glucose (33 mM) and glutamine (2 mM).
# RARγ [11] = target: T1, RARγ; settings: Bernard et al., 1992; Delescluse et al., 1991; cited from earlier work
# Target sequence in this assay (P13631 whole entry, species assumed, the tested form may be a part): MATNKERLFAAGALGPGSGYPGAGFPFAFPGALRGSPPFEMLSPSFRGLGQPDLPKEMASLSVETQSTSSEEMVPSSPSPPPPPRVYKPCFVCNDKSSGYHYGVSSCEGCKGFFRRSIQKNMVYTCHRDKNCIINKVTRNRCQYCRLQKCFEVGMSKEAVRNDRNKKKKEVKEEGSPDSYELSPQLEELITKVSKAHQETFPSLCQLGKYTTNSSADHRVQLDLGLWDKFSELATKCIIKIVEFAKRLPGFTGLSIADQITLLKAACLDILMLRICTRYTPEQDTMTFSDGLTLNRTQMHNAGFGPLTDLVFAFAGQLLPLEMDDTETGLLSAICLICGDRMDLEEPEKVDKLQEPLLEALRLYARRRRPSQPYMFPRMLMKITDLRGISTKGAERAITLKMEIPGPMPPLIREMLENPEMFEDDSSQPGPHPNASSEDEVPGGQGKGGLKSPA
# cerebellar neurons = test: Neurite outgrowth assay, cerebellar neurons in the presence of myelin/MAG; type: cell-based, rat
# Method: as §5
# [12] = system: rats with crushed corticospinal tract (CST); test: Corticospinal tract (CST) crush at C4 in rats, i.c.v. treatment; tracing and behavioural tests; type: in vivo; settings: rat
# Method: FIGS. 1A and 1B show two graphs of the number of rat footslips as a function of the number of weeks after lesion, for grid task (FIG. 1A) and beam task (FIG. 1B).
# All animal experiments were carried out under UK home office regulations. Dorsal column lesions were performed on adult male rats as previously described (see, e.g., Bradbury et al., 2002). […] The pumps were placed subcutaneously and connected to a brain infusion catheter (Alzet™), which was inserted into the lateral ventricle (Bregma coordinates: rostrocaudal: −0.8 mm, mediolateral: −1.5 mm and dorsoventral: −4.5 mm). […] The dose was based previous in vivo studies on activation of RARα and RARβ signalling in the adult rat brain (see, e.g., Goncalves et al., 2009). Animals which underwent behavioural studies and subsequent tracing (n=6 per treatment) were kept for six weeks before being sacrificed with a lethal injection of pentobarbital and transcardially perfused with 4% PFA. Dissected tissue (cervical and lumbar spinal cord) was processed for immunofluoresence.
# Descendent corticospinal tract axons were anterogradely traced after the dorsal column crush was performed by injected BDA (10% in PBS, Mw10K from Molecular Probes) into the motor cortex as previously described (see, e.g., Yip et al., 2006). Six injections were done in the right cortex (0.5 μL of BDA/injection point). Animals (n=6 per treatment) were perfused and the spinal cord was transferred to PBS (plus 0.1% sodium azide) and embedded in gelatin (10%, 300 bloom; Sigma, Poole, UK). Gelatin blocks were hardened in 4% paraformaldehyde, and 40 μm free-floating serial transverse sections were cut on a vibratome (Leica, Nussloch, Germany) and collected in 24-well plates containing PBS (plus 0.1% sodium azide).
# BDA was detected using the tyramide amplification kit (Perkin-Elmer) coupled with extra-avidin-FITC (Amersham Pharmacia Biotech, UK, 1:500). All BDA-labelled fibres observed within a 1-mm square grid were counted at measured intervals from 5 mm above to 5 mm below the lesion site by an experimenter, blinded to treatment.
# CST neurons were labelled by retrograde tracing injecting 2 μL of 5% Fluorogold (FG, Molecular Probes) 2 mm deep into the cervical spinal cord (C3-C4) at a rate of 0.5 μL/minute (n=3 rats per group). In sham animals, FG was injected 0.5 mm bilateral to the medial line of spinal cord (1 μL per side), and in lesioned animals FG (2 μL) was injected into the injury. After 14 days, the cortices were fixed for 2 hours in 4% paraformaldehyde (PFA), embedded in OCT compound and stored frozen. Sagittal sections (12 μm) were cut and 4 sequential slides containing 2 sections from lateral 3.4-3.9 mm were taken for analysis (see, e.g., Paxinos and Watson, 2002).
# Immunohistochemistry was carried out using anti-rabbit phospho-Akt (Cell Signalling technology, dilution of 1:100). Secondary antibody used was anti-rabbit Cy3 conjugated (Jackson, used at 1:1000). Images were captured at 100× magnification using a Roperscientific digital camera.
# The behavioural tests were carried out as previously described (see, e.g., Bradbury et al., 2002). Rats (n=6 per treatment group) were first trained for two weeks before surgery to perform grid walk and beam walk; they were then tested by an observer blinded to the experimental treatment once a week for five weeks after lesion.
# RARα [13] = target: T5, RARα; settings: Bernard et al., 1992; Delescluse et al., 1991; cited from earlier work
# Target sequence in this assay (P10276 whole entry, species assumed): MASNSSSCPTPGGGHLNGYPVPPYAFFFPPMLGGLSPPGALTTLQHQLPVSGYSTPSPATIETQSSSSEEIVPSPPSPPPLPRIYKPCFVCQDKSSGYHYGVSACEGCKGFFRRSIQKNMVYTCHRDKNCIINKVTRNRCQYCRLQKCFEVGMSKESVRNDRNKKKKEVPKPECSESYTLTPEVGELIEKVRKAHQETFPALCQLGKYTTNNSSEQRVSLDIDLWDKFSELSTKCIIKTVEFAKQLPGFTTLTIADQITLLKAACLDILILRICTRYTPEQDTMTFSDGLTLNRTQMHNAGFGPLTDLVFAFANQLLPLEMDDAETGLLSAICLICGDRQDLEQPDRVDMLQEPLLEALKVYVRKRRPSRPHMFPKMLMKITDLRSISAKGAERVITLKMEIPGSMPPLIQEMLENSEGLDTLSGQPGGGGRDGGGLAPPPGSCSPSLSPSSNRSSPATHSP
# [14] = i.c.v. 180 ng/kg/day for 14 days
structure (smiles),measurement,setting,value
"Cc1ccc(C)c2oc(-c3nc(-c4ccc(C(=O)O)cc4)no3)cc12 [BHBA-001, 4-(5-(4,7-Dimethylbenzofuran-2-yl)-1,2,4-oxadiazol-3-yl)benzoic acid]",Selectivity over RARγ,"RARγ [1]; Table 3, Human",5-fold
same,Selectivity over RARα,RARα [2],14-fold
same,EC50,RARγ [3],11 nM
same,EC50,RARβ [4],1.94 nM
same,EC50,RARβ [5],1.94 nM
same,EC50,"RARβ [6]; Table 3, Human, read-out: RARβ potency - EC50",2.05 nM
same,Selectivity over RARγ,RARγ [7],6-fold
same,EC50,RARα [8],26 nM
same,Selectivity over RARα,"RARα [9]; Table 3, Human",23-fold
same,Behavioural tests after 5 weeks (severed sensory roots),[10],performed as well as non-lesioned animals
"COc1ccc(-c2ccc3cc(C(=O)O)ccc3c2)cc1C1(C)CCCCC1 [CD2019, 6-(4-methoxy-3-(1-methylcyclohexyl)phenyl)-2-naphthalenecarboxylic acid]",Increase in neuronal phospho-Akt (not total Akt) compared to control cultures,phospho-Akt,4 fold
same,Selectivity over RARγ,"RARγ [1]; Table 1, all human data",1.9-fold
same,Axon/neurite outgrowth from cultured adult cortex of treated animals,cortex explants,did grow
same,Selectivity RARβ over RARγ,RARγ [11],12 fold
same,EC50,"RARβ [6]; Table 1, all human data, read-out: RARβ potency EC50",0.83 nM
same,Neurite outgrowth of cerebellar neurons grown in the presence of myelin,cerebellar neurons,causes the outgrowth of neurites
same,Selectivity over RARα,"RARα [9]; Table 1, all human data",11-fold
same,Behavioural tests after 5 weeks (severed sensory roots),[10],performed as well as non-lesioned animals
same,Phospho AKT in the injured CST neurons in vivo,[12],induced
same,BDA labelled CST axons crossing the lesion site,[12]; after 5 weeks,many axons were observed crossing the injury site
same,RARβ2 expression in CST neuronal cell bodies,[12]; applied to the lateral ventricle for 2 weeks,upregulation of RARβ 2
same,Behavioural tests after 5 weeks (CST lesion),[12]; grid walk and beam walk,performed as well as non-lesioned animals
same,"Functional recovery of the forelimb in beam task (footslips), time of recovery",[12]; [14],2 weeks post lesion
same,"Functional recovery of the forelimb in grid task (footslips), time of recovery",[12]; [14],4 weeks post lesion
same,Selectivity RARβ over RARα,RARα [13],5 fold
